Publication PMC9090415, “Discovery of small molecule inhibitors of Plasmodium falciparum apicoplast DNA polymerase” (Journal of Enzyme Inhibition and Medicinal Chemistry, 2022)

Target: T1, bacteriophage T4 DNA polymerase (Enterobacteria phage T4, UniProt P04415)
T1 construct: made in house
T1 sequence (P04415 1-898): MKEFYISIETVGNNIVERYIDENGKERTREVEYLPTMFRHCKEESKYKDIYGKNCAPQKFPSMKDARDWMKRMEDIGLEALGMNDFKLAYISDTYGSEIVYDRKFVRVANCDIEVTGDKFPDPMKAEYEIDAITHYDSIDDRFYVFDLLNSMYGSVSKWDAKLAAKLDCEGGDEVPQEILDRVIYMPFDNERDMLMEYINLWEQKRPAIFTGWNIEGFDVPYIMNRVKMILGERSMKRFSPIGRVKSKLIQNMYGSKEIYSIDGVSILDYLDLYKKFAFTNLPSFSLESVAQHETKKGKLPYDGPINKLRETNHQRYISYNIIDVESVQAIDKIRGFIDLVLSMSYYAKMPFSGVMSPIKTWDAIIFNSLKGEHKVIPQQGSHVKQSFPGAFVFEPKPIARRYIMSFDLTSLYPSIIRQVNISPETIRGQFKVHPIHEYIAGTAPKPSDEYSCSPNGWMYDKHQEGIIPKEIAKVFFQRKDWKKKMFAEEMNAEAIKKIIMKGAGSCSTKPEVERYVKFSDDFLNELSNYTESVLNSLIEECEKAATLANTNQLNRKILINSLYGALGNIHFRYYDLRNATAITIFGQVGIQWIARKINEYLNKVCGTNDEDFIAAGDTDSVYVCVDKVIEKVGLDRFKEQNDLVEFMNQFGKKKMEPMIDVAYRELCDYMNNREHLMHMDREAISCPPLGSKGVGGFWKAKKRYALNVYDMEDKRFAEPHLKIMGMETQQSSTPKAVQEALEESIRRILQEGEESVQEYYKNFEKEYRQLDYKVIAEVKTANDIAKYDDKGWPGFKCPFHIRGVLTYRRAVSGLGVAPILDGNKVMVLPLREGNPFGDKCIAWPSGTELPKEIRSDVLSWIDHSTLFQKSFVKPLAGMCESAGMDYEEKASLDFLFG
Experiment: Counter-screen against bacteriophage T4 DNA polymerase
Type: biochemical
Conditions: for % inhibition T4 10' 2.5 / % inhibition T4 10' 5 / % inhibition T4 10' 10 / % inhibition T4 10' 20 / % inhibition T4 10' 40 / % inhibition T4 10' 80: read at 10'
How it was run: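 IC50 values come from dose-response testing of each compound against T4 DNA polymerase. This B-family polymerase was purified in-house and used as the counter-screen.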

**Q.** For `Cn1nc(-c2nnc(-c3ccccc3F)o2)c2c1CCN(C(=O)c1ccccc1Cl)C2` [Molecule 34, Cn1nc(c2c1CCN(C2)C(=O)c1ccccc1Cl)c1nnc(o1)c1ccccc1F], which “% inhibition T4 10' 2.5” value (DRC-1, concentration 2.5) is on record?
**A.** -0.603%

**Q.** And the “% inhibition T4 10' 5” value (DRC-1, concentration 5)?
**A.** -0.853%

**Q.** And the “% inhibition T4 10' 10” value (DRC-1, concentration 10)?
**A.** 3%

**Q.** What about the “% inhibition T4 10' 20” value (DRC-1, concentration 20) of the same molecule?
**A.** 1.06%

**Q.** And the “% inhibition T4 10' 40” value (DRC-1, concentration 40)?
**A.** 1.22%

**Q.** What about the “% inhibition T4 10' 80” value (DRC-1, concentration 80) of the same molecule?
**A.** 31%

**Q.** What about the “% inhibition T4 70' 2.5” value (DRC-1, read at 70', concentration 2.5) of the same molecule?
**A.** -2.57%

**Q.** What about the “% inhibition T4 70' 5” value (DRC-1, read at 70', concentration 5) of the same molecule?
**A.** -4%

**Q.** And the “% inhibition T4 70' 10” value (DRC-1, read at 70', concentration 10)?
**A.** -2%

**Q.** And the “% inhibition T4 70' 20” value (DRC-1, read at 70', concentration 20)?
**A.** -2.24%

**Q.** What about the “% inhibition T4 70' 40” value (DRC-1, read at 70', concentration 40) of the same molecule?
**A.** -0.925%

**Q.** What about the “% inhibition T4 70' 80” value (DRC-1, read at 70', concentration 80) of the same molecule?
**A.** 28%

**Q.** What about the “% inhibition T4 130' 2.5” value (DRC-1, read at 130', concentration 2.5) of the same molecule?
**A.** -4%

**Q.** And the “% inhibition T4 130' 5” value (DRC-1, read at 130', concentration 5)?
**A.** -4%

**Q.** What about the “% inhibition T4 130' 10” value (DRC-1, read at 130', concentration 10) of the same molecule?
**A.** -2.33%

**Q.** What about the “% inhibition T4 130' 20” value (DRC-1, read at 130', concentration 20) of the same molecule?
**A.** -2.59%

**Q.** And the “% inhibition T4 130' 40” value (DRC-1, read at 130', concentration 40)?
**A.** 0.922%

**Q.** What about the “% inhibition T4 130' 80” value (DRC-1, read at 130', concentration 80) of the same molecule?
**A.** 22%

**Q.** What about the “% inhibition T4 10' 2.5” value (DRC-2, concentration 2.5) of the same molecule?
**A.** 0.487%

**Q.** And the “% inhibition T4 10' 5” value (DRC-2, concentration 5)?
**A.** -4%

**Q.** What about the “% inhibition T4 10' 10” value (DRC-2, concentration 10) of the same molecule?
**A.** -3%

**Q.** What about the “% inhibition T4 10' 20” value (DRC-2, concentration 20) of the same molecule?
**A.** 1.3%

**Q.** And the “% inhibition T4 10' 40” value (DRC-2, concentration 40)?
**A.** 3.35%

**Q.** What about the “% inhibition T4 10' 80” value (DRC-2, concentration 80) of the same molecule?
**A.** 11%

**Q.** And the “% inhibition T4 40' 2.5” value (DRC-2, read at 40', concentration 2.5)?
**A.** -0.945%

**Q.** What about the “% inhibition T4 40' 5” value (DRC-2, read at 40', concentration 5) of the same molecule?
**A.** -3.75%

**Q.** What about the “% inhibition T4 40' 10” value (DRC-2, read at 40', concentration 10) of the same molecule?
**A.** -3%

**Q.** What about the “% inhibition T4 40' 20” value (DRC-2, read at 40', concentration 20) of the same molecule?
**A.** 0.863%

**Q.** What about the “% inhibition T4 40' 40” value (DRC-2, read at 40', concentration 40) of the same molecule?
**A.** 3.24%

**Q.** What about the “% inhibition T4 40' 80” value (DRC-2, read at 40', concentration 80) of the same molecule?
**A.** 12%

**Q.** And the “% inhibition T4 90' 2.5” value (DRC-2, read at 90', concentration 2.5)?
**A.** -0.872%

**Q.** What about the “% inhibition T4 90' 5” value (DRC-2, read at 90', concentration 5) of the same molecule?
**A.** -3.55%

**Q.** What about the “% inhibition T4 90' 10” value (DRC-2, read at 90', concentration 10) of the same molecule?
**A.** -2.12%

**Q.** What about the “% inhibition T4 90' 20” value (DRC-2, read at 90', concentration 20) of the same molecule?
**A.** 0.601%

**Q.** What about the “% inhibition T4 90' 40” value (DRC-2, read at 90', concentration 40) of the same molecule?
**A.** 1.62%

**Q.** What about the “% inhibition T4 90' 80” value (DRC-2, read at 90', concentration 80) of the same molecule?
**A.** 10%

**Q.** What about the “% inhibition T4 180' 2.5” value (DRC-2, read at 180', concentration 2.5) of the same molecule?
**A.** -4.68%

**Q.** And the “% inhibition T4 180' 5” value (DRC-2, read at 180', concentration 5)?
**A.** -7.58%

**Q.** And the “% inhibition T4 180' 10” value (DRC-2, read at 180', concentration 10)?
**A.** -5%

**Q.** And the “% inhibition T4 180' 20” value (DRC-2, read at 180', concentration 20)?
**A.** -3.78%

**Q.** What about the “% inhibition T4 180' 40” value (DRC-2, read at 180', concentration 40) of the same molecule?
**A.** -2.41%

**Q.** And the “% inhibition T4 180' 80” value (DRC-2, read at 180', concentration 80)?
**A.** 6%

**Q.** `O=C(NC(C(Cl)Cl)S(=O)(=O)c1ccccc1)c1ccccc1` (stereo not shown) [KU0045239] was tested. Which “% inhibition T4 10'” value (DRC-2, concentration 10) did it give?
**A.** -19%

**Q.** And the “% inhibition T4 40'” value (DRC-2, concentration 5)?
**A.** -21%

**Q.** And the “% inhibition T4 40'” value (DRC-2, concentration 10)?
**A.** -19%

**Q.** And the “% inhibition T4 40'” value (DRC-2, concentration 20)?
**A.** -26%

**Q.** What about the “% inhibition T4 40'” value (DRC-2, concentration 40) of the same molecule?
**A.** -26%

**Q.** What about the “% inhibition T4 90'” value (DRC-2, concentration 2.5) of the same molecule?
**A.** -26%

**Q.** And the “% inhibition T4 90'” value (DRC-2, concentration 5)?
**A.** -17%

**Q.** What about the “% inhibition T4 90'” value (DRC-2, concentration 20) of the same molecule?
**A.** -18%

**Q.** And the “% inhibition T4 90'” value (DRC-2, concentration 40)?
**A.** -18%

**Q.** What about the “% inhibition T4 180'” value (DRC-2, concentration 5) of the same molecule?
**A.** -21%

**Q.** And the “% inhibition T4 180'” value (DRC-2, concentration 10)?
**A.** -18%

**Q.** And the “% inhibition T4 180'” value (DRC-2, concentration 20)?
**A.** -17%

**Q.** Which “% inhibition T4 10'” value (DRC-2, concentration 10) does the source give for `CC(NC(=O)Cc1cc(=O)[nH]c(SCc2cccc(Cl)c2)n1)c1ccccc1` (stereo not shown) [Molecule 67, O=C(NC(c1ccccc1)C)Cc1nc(SCc2cccc(c2)Cl)[nH]c(=O)c1] here?
**A.** 19%

**Q.** What about the “% inhibition T4 10'” value (DRC-2, concentration 20) of the same molecule?
**A.** 18%

**Q.** What about the “% inhibition T4 10'” value (DRC-2, concentration 80) of the same molecule?
**A.** 31%

**Q.** And the “% inhibition T4 40'” value (DRC-2, concentration 2.5)?
**A.** -9%

**Q.** And the “% inhibition T4 40'” value (DRC-2, concentration 10)?
**A.** 19%

**Q.** What about the “% inhibition T4 40'” value (DRC-2, concentration 20) of the same molecule?
**A.** 19%

**Q.** And the “% inhibition T4 40'” value (DRC-2, concentration 40)?
**A.** 31%

**Q.** What about the “% inhibition T4 90'” value (DRC-2, concentration 2.5) of the same molecule?
**A.** -9%

**Q.** And the “% inhibition T4 90'” value (DRC-2, concentration 10)?
**A.** 18%

**Q.** What about the “% inhibition T4 90'” value (DRC-2, concentration 20) of the same molecule?
**A.** 18%
